Reference: patent US6395772B1, “Method for blocking endothelial cell-leukocyte attachment by inhibiting expression of adhesion molecules on the vascular endothelium for therapeutic applications” (National Institute of Immunology, priority 1996, dated 2002)
“Also recorded” adds a separate entry of the source.

Tests used:
[1] = test system: B cells, T cells; conditions: cited from earlier work
[2] = test system: ICAM-1 on endothelial cell line (send. 1); experiment: TNF-α induced ICAM-1 expression on endothelial cell line (send. 1), flowcytometric analysis; format: cell-based
Excerpt: FIG. 5: Effect of berberine pretreatment on expression of TNF-α induced ICAM-1 expression on endothelial cell line (send. 1), in vitro. […] (Flowcytometric analysis using anti-ICAM 1 antibody—FITC conjugate). The black line represents background level of ICAM expression, the red line represents induced level of ICAM following TNF stimulation and the green line represents TNF-α induced ICAM-1 expression after treatment for different duration.
FIG. 6: Effect of berberine pretreatment (dose response) on expression of TNF-α induced ICAM-1 expression on endothelial cell line (send. 1), in vitro. […] (Flowcytometric analysis using anti-ICAM 1 antibody—FITC conjugate). The black line represents background level of ICAM-1 expression, the red line represents induced level of ICAM following TNF stimulation and the green line represents the TNF-α induced ICAM induced ICAM expression after treatment with different doses of berberine.
Shifting of this curve to the left indicates the lower amount of expression of ICAM-1.
Effect of berberine for various duration ranging from 1, 6, 12 and 24 hours on the expression of ICAM-1 on the endothelial cell line (send. 1) in response to a combination of recombinant TNF-α and IFN-γ was analyzed using flowcytometer after staining with FITC labeled anti-CD 54 (ICAM-1) antibody.

[3] = test system: attachment of neutrophils to endothelial lining of the glomerular capillaries; experiment: Neutrophil attachment to endothelial lining in kidney of endotoxin-challenged mice (electron microscopy); format: in vivo, BALB/C mice
Procedure: FIG. 1: Electron micrograph of kidney from a mouse challenged with endotoxin (LPS: 500 ug)) showing attachment of neutrophils with endothelial cells of glomerular capillary. Degenerative changes in surrounding tissue are shown.
FIG. 2: Electron micrograph of kidney from a mouse treated with a dose of berberine of 10 mg/kg followed 24 hours later by endotoxin (LPS 500 ug).
BALB/C mice were treated with berberine (1, 5, 10 or 20 ug/kg body weight) intraperitoneally and challenged 24 hours later with lethal dose of endotoxin. Kidneys were removed after 3, 6 and 12 hours after endotoxin challenge and the tissue samples was fixed and processed for electron microscopy.

[4] = test system: TNF sensitive mouse fibroblast L-929 cell line; experiment: TNF-α mediated cytotoxicity on TNF-sensitive L-929 fibroblast cell line (MTT assay); format: cell-based
Procedure: FIG. 7: Effect of berberine on TNF-α mediated cytotoxicity on TNF sensitive mouse fibroblast L-929 cell line.
Effect of Berberine on TNF-α mediated cytotoxicity was evaluated using TNF-sensitive L-929 fibroblast cell line. L-929 cells were plated at a concentration of 5×10^4 cells/well in a 96-well flat bottom plate in a volume of 100 μl. The cells were incubated at 37° C. for 16-18 hrs. Different concentrations of TNF-α, with and without different doses of berberine, were added to the cultures. The cells were then incubated for additional 15 hrs and cytotoxity was measured by MTT assay.

[5] = test system: ICAM-1; experiment: ICAM-1 expression on vascular endothelium of LPS-challenged mice (immunocytochemical localization); format: in vivo, BALB/C mice; conditions: berberine intraperitoneally 24 hours before 500 ug LPS; sacrificed 6 hours after LPS
Procedure: FIG. 3: Photomicrograph of liver from mice challenged with endotoxin (LPS 500 ug). […] (Immunocytochemical localization using anti-ICAM-1 antibody on frozen tissue).
FIG. 4: Photomicrograph of liver from mice treated with berberine (10 ug/kg) followed 24 hours later by endotoxin (LPS 500 ug). […] (Immunocytochemical localization using anti-ICAM-1 antibody frozen tissue).
BALB/C mice were treated with berberine (1, 5, 10 or 20 ug/kg body weight) intraperitoneally and challenged 24 hours later with 500 ug of endotoxin (lipopolysaccharide: LPS); controls without berberine treatment were also given LPS challenge. Animals were sacrificed 6 hours after the LPS challenge and various organs (liver, kidney, lungs) were removed and immediately frozen in liquid nitrogen. Frozen section of these organs were subjected to immunocytochemical localization for ICAM 1 antibodies.

Q: For `COc1ccc2cc3[n+](cc2c1OC)CCc1cc2c(cc1-3)OCO2` [berberine], which “antibody production by B cells” value [1] is on record?
A: inhibits antibody production by B cells

Q: What about the “propagation of T cells” value [1] of the same compound?
A: no effect on propagation of T cells

Q: And the “maximum inhibition of ICAM-1 expression” value ([2]; 24 hours of treatment at 100 μg/ml)?
A: 24 hour pretreatment shows the maximum inhibition of ICAM-1 expression and Treatment with 100 ug/ml berberine shows the maximum inhibition of ICAM-1 expression and maximum inhibition was seen at 24 hours of treatment at 100 μg/ml

Q: What about the “dose dependence of inhibition of ICAM-1 expression” value ([2]; dose response, FIG. 6) of the same compound?
A: dose dependent

Q: What about the “inhibition of ICAM-1 expression on endothelial cells” value ([2]; recombinant TNF-α and IFN-γ stimulation, as early as 6 hours of treatment) of the same compound?
A: inhibited the expression of ICAM-1 on endothelial cells

Q: And the “glomerular morphology / surrounding tissue” value ([3]; berberine dose of 10-20 mg/kg, endotoxin challenge 24 hours later)?
A: surrounding tissue appears normal; also recorded: glomerular morphology was normal

Q: What about the “attachment of neutrophils to endothelial lining of glomerular capillaries” value ([3]; berberine intraperitoneally 24 hours before lethal endotoxin (LPS 500 ug), kidneys 3, 6 and 12 hours after challenge) of the same compound?
A: appear free without attachment to endothelial lining; also recorded: remarkably inhibited the attachment of neutrophils to endothelial lining of the glomerular capillaries

Q: What about the TNF mediated cytotoxity ([4]; berberine 100 μg/ml, TNF 100 pg/ml alone showed 66% cytotoxity, 15 hrs incubation) of the same compound?
A: 27%

Q: What about the “protection against TNF mediated killing” value ([4]; different doses of berberine with TNF-α, 15 hrs) of the same compound?
A: dose dependent inhibition of cytotoxic effect; also recorded: dose dependent protection

Q: What about the “expression of ICAM-1 on vascular endothelium (liver, kidney, lungs)” value [5] of the same compound?
A: lack of expression of ICAM-1 on vascular endothelium; also recorded: inhibited expression of ICAM 1 on the endothelial lining of all organs
